The results in this text go back to patent US20240124410A1, “SMALL MOLECULES AND THEIR USE AS MALT1 INHIBITORS” (University of Pittsburgh - Of the Commonwealth System of …, priority 2021, published 2024).

pIC50: −log10 of the molar value.

For assay [1], the target named is T1, nAChR(a4/b2) (Homo sapiens, UniProt P17787+P43681).
T1 construct: Eurofins
Kind of assay: Eurofins SAFETYscan 78-target panel, off-target effects, nAChR(a4/b2). Type of assay: biochemical. The note with it: antagonist / blocker / inhibitor mode. How it is done: (§1) FIG. 9. Table summarizing the Eurofins analysis of potential off-target effects of M1i-124. […] values above 10 μM are generally considered to be acceptable. FIG. 10. Representative hematoxylin and eosin (H&E) staining of organ sections (lung, heart, kidney, liver and adrenal) from control and M1i-124 treated mice described in FIG. 6.
(§2) Studies were performed using the services of Touchstone Biosciences and Eurofins Pharma Discovery Services. […] All blood samples (30-50 ul per sample) were taken via tail vein at 5, 15, and 30 minutes, and 1, 2, 4, 6, 8, and 24 hours after dosing. Blood samples are collected in Greiner MiniCollect K2 EDTA tubes, placed on ice, and within 30 minutes, centrifuged at 15,000 g for 5 minutes to obtain plasma samples. All plasma samples are stored at −70° C. until analysis. Plasma samples were prepared for analysis by LC-MS/MS, and key PK parameters, including terminal half-life (t 112), initial plasma concentration (C0), area under the plasma concentration vs. time curve (AUC), volume of distribution at steady-state (Vss), total plasma clearance (CLp), and mean residence time (MRT), were measured.
(§3) Assay details are available through Eurofins.

The target of assay [2] is T2, HRH2 (Homo sapiens, UniProt P25021).
T2 construct: Eurofins
T2 sequence (P25021 whole entry): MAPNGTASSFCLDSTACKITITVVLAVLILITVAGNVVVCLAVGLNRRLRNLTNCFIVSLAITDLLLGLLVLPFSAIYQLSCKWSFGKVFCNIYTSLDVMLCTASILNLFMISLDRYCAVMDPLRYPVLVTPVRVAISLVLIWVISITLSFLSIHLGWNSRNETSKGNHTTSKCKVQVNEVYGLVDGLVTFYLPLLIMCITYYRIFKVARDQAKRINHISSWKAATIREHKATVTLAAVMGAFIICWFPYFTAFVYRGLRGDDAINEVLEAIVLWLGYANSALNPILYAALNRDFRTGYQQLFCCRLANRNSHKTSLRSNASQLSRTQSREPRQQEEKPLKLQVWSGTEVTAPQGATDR
Kind of assay: Eurofins SAFETYscan 78-target panel, off-target effects, HRH2. The format is biochemical. Particulars: antagonist / blocker / inhibitor mode. How it is done: as §1, §2, §3

For assay [3], the target named is T3, CNR2 (Homo sapiens, UniProt P34972).
T3 construct: Eurofins
T3 sequence (P34972 whole entry): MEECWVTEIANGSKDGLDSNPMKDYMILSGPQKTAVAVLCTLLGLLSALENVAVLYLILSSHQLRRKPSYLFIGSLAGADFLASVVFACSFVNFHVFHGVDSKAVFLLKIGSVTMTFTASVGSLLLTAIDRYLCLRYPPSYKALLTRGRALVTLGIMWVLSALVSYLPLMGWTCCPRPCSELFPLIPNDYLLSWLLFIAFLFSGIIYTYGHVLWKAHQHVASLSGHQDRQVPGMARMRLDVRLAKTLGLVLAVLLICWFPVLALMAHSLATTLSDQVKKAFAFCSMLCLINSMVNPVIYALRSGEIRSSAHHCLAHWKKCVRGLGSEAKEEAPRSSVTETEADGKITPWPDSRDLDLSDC
Kind of assay: Eurofins SAFETYscan 78-target panel, off-target effects, CNR2. The format is biochemical. The note with it: antagonist / blocker / inhibitor mode. The protocol: as §1, §2, §3

Assay [4] concerns anti-CD3/CD28-induced phosphorylation of IKKα/β. Kind of assay: Phosphorylation of IKKα/β in Jurkat T cells (Western blot). The note with it: 20 hours pretreatment, anti-CD3/CD28 for 0-20 minutes. Type of assay: cell-based. How it is done: The DLBCL cell lines, OCI-Ly1, OCI-Ly3, and OCI-Ly7, were provided by Dr. Mark Minden (University Health Network, Toronto, Ontario, Canada). TMD8 cells were provided by Dr. Louis Staudt (NCI, NIH). OCI-Ly1 and OCI-Ly7 cells were cultured in Iscove's Modified Dulbecco's Medium (IMDM) supplemented with 10% FBS. OCI-Ly3 cells were cultured in IMDM supplemented with 20% FBS. TMD8 and Jurkat T cells were cultured in RPMI1640 medium with 10% FBS. HEK293T cells were cultured in DMEM medium with 10% FBS. All media were supplemented with 100 U/ml penicillin streptomycin. Stimulation of Jurkat cells was conducted by adding 5 ng/ml of phorbol 12-myristatel3 acetate (PMA)(Sigma-Aldrich) and 1μM ionomycin (Calbiochem), or by adding 5-10 μL/mL of ImmunoCult Human CD3/CD28 ([…] Technologies).
(A western blot detects proteins with antibodies after separation by electrophoresis.)

The subject of assay [5] is TMD8 ABC-DLBCL cells. Kind of assay: Cell proliferation (cell count, trypan blue exclusion), TMD8. The format is cell-based. Particulars: TMD8, single dose of 1 μM, 12 days. The text has this: (§4) Cell number was counted using the trypan blue dye exclusion method with Vi-CELL cell viability analyzer (Beckman Coulter) at days 7, 10, and 12 of treatment with compounds. Cell proliferation was specifically evaluated using the CellTrace Violet reagent (ThermoFisher Cat #C34571) which undergoes dilution with each round of cell division. 1.5×10^6 cells were washed twice in PBS and resuspended in 2 mls of PBS.

Assay [6] deals with MALT1 proteolytic cleavage of RelB and N4BP1. Kind of assay: RelB and N4BP1 cleavage assay in Jurkat T cells. The format is cell-based. Particulars: 20 hours pretreatment, MG132, PMA/iono stimulation.
In assay [7] the test system is OCI-Ly3 ABC-DLBCL cells. Kind of assay: Cell proliferation (cell count, trypan blue exclusion), OCI-Ly3. The note with it: OCI-Ly3, single dose of 1 μM, 12 days. The format is cell-based.
Source text: as §4

The test system of assay [8] is IL-2 secretion. Kind of assay: IL-2 secretion (ELISA). The format is cell-based, human. Particulars: dose-response. The protocol: Expression of cytokines from cell culture supernatants was measured 24h after treatment with 0, 0.01, 0.03, 0.1, 0.3, 1, or 3 uM of compounds using the following ELISA kits according to the manufacturer's instructions: Human IL-2 ELISA (BioLegend Cat #431804), Human IL-6 ELISA (BioLegend Cat #430504), and Human IL-10 ELISA (BioLegend Cat #430604).
In general terms: In an ELISA, binding on a coated surface is turned into a signal by an enzyme label.

T1 sequence (P43681 29-627 limits assumed): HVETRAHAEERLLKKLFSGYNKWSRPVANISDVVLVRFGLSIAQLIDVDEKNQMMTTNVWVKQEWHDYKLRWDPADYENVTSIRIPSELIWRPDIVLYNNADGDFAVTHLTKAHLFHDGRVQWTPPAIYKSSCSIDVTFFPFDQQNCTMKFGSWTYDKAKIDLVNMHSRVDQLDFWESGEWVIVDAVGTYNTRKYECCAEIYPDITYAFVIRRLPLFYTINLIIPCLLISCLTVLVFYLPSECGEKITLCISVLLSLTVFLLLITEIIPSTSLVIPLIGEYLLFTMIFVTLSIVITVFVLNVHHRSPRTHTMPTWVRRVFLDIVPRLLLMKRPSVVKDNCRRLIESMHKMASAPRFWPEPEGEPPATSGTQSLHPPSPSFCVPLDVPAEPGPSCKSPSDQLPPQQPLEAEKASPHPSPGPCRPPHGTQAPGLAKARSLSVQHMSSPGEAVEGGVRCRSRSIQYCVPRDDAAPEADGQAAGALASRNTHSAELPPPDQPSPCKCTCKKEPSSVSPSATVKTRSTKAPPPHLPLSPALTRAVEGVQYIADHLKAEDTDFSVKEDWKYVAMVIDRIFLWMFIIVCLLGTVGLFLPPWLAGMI
T1 sequence (P17787 26-502): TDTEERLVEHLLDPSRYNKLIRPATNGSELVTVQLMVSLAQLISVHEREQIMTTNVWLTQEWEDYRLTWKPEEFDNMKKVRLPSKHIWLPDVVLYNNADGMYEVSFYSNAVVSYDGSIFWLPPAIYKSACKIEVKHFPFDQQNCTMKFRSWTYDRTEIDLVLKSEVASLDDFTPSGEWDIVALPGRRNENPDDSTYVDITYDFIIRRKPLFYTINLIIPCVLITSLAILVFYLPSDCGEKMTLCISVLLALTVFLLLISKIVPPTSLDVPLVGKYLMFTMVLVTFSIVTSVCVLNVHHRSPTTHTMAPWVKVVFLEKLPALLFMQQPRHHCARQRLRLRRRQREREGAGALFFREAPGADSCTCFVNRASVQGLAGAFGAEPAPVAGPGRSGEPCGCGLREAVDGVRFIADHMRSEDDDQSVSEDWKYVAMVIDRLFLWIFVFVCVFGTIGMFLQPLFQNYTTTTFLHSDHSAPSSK

Usually pIC50 stands for the negative decadic logarithm of the IC50, by convention in mol/L. In the case of `O=S(=O)(NCc1ccc2c(c1)OCO2)c1ccc(Cc2ccc(S(=O)(=O)NCc3ccc4c(c3)OCO4)cc2)cc1` [M1i-124], the pIC50 in assay [1] is 5.40; in assay [2], 5.64; in assay [3], 5.00.
For `COc1ccc(CNS(=O)(=O)c2ccc(Cc3ccc(S(=O)(=O)NCc4ccc(OC)cc4)cc3)cc2)cc1` [M1i-124d1], the “Phosphorylation of IKKα/β (phospho-IKK/total IKK)” value in assay [4] is listed as “leads to inhibition”. Further, the Proliferation entry in assay [5] was “inhibit the proliferation”. For the same molecule, in assay [6], the “MALT1 proteolytic cleavage of N4BP1 (ratio cleaved/full-length)” value is listed as “inhibit” and the “MALT1 proteolytic cleavage of RelB (ratio cleaved/full-length)” value is “inhibit”. Further, the Proliferation entry in assay [7] is “inhibit the proliferation”. Besides, in assay [8], the IL-2 secretion result was “dose-dependent inhibition”.
